According to PubChem BioAssay AID248 (DTP/NCI, 2004):
Where “and” joins values, the source holds several entries; their conditions need not be identical. Equal entries are not always repeated. Inconclusive results and toxic doses are left out. No stated cut-off is given here; in the data, active means T/C of 150% or more; inactive means T/C below 125%.

System: L1210 leukemia ip in BDF1 mice, survival T/C
Experiment: NCI In Vivo Anticancer Drug Screen. Data for tumor model L1210 Leukemia (intraperitoneal) in B6D2F1 (BDF1) mice
Details: endpoint: mean survival time, higher = longer survival
In short: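 In this screen, tumor-bearing mice given compound are compared to those given vehicle, and their survival values are reported as a treated-to-control quotient.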

[1] = dose: 400.0 mg/kg/injection, schedule: Q01DX001 (ip), vehicle: carboxymethylcellulose (CMC)
[2] = dose: 100.0 mg/kg/injection, schedule: Q01DX001 (ip), vehicle: saline with Tween-80
[3] = dose: 200.0 mg/kg/injection, schedule: Q01DX001 (ip), vehicle: saline with Tween-80
[4] = dose: 400.0 mg/kg/injection, schedule: Q01DX001 (ip), vehicle: saline with Tween-80
[5] = dose: 100.0 mg/kg/injection, schedule: Q04DX003 (ip), vehicle: saline with Tween-80
[6] = dose: 200.0 mg/kg/injection, schedule: Q04DX003 (ip), vehicle: saline with Tween-80
[7] = dose: 400.0 mg/kg/injection, schedule: Q04DX003 (ip), vehicle: saline with Tween-80
[8] = dose: 75.0 mg/kg/injection, schedule: Q01DX001 (ip), vehicle: saline
[9] = dose: 150.0 mg/kg/injection, schedule: Q01DX001 (ip), vehicle: saline
[10] = dose: 25.0 mg/kg/injection, schedule: Q04DX003 (ip), vehicle: Klucel (hydroxypropylcellulose) (HPC)
[11] = dose: 50.0 mg/kg/injection, schedule: Q04DX003 (ip), vehicle: Klucel (hydroxypropylcellulose) (HPC)
[12] = dose: 100.0 mg/kg/injection, schedule: Q01DX009 (ip), vehicle: Klucel (hydroxypropylcellulose) (HPC)
[13] = dose: 100.0 mg/kg/injection, schedule: Q04DX003 (ip), vehicle: Klucel (hydroxypropylcellulose) (HPC)
[14] = dose: 200.0 mg/kg/injection, schedule: Q01DX009 (ip), vehicle: Klucel (hydroxypropylcellulose) (HPC)
[15] = dose: 100.0 mg/kg/injection, schedule: Q01DX001 (ip), vehicle: Klucel (hydroxypropylcellulose) (HPC)
[16] = dose: 200.0 mg/kg/injection, schedule: Q01DX001 (ip), vehicle: Klucel (hydroxypropylcellulose) (HPC)
[17] = dose: 200.0 mg/kg/injection, schedule: Q04DX003 (ip), vehicle: Klucel (hydroxypropylcellulose) (HPC)
[18] = dose: 400.0 mg/kg/injection, schedule: Q01DX001 (ip), vehicle: Klucel (hydroxypropylcellulose) (HPC)
[19] = dose: 400.0 mg/kg/injection, schedule: Q04DX003 (ip), vehicle: Klucel (hydroxypropylcellulose) (HPC)

Measured: T/C

CSc1nc(N)c(N=Nc2ccc(S(=O)(=O)Nc3nccs3)cc2)c(=O)[nH]1
inactive: dose: 100.0 mg/kg/injection, schedule: Q01DX001 (ip), vehicle: carboxymethylcellulose (CMC) 92 % of control | dose: 200.0 mg/kg/injection, schedule: Q01DX001 (ip), vehicle: carboxymethylcellulose (CMC) 92 % of control | [1] 92 % of control

Fc1cc(N(CCCl)CCCl)ccc1C=Nc1ccc(-n2ccnc2)cc1
inactive: dose: 62.5 mg/kg/injection, schedule: Q04DX002 (ip), vehicle: Klucel (hydroxypropylcellulose) (HPC) 102 % of control | dose: 125.0 mg/kg/injection, schedule: Q04DX002 (ip), vehicle: Klucel (hydroxypropylcellulose) (HPC) 106 % of control | dose: 250.0 mg/kg/injection, schedule: Q04DX002 (ip), vehicle: Klucel (hydroxypropylcellulose) (HPC) 106 % of control

O=C(Cc1ccccc1)Nc1cccc(O)c1
inactive: [2] 97 % of control | [3] 96 % of control | [4] 95 % of control

CNC(C)c1ccc(C)cc1 (stereo not drawn)
inactive: dose: 6.25 mg/kg/injection, schedule: Q01DX009 (ip), vehicle: saline 123 % of control | dose: 12.5 mg/kg/injection, schedule: Q01DX009 (ip), vehicle: saline 95 % of control | dose: 25.0 mg/kg/injection, schedule: Q01DX009 (ip), vehicle: saline 100 % of control

C/C(=C\C(=O)O)C(=O)O (tested in a mixture with another compound)
inactive: dose: 264.0 mg/kg/injection, schedule: Q01DX001 (ip), vehicle: carboxymethylcellulose (CMC) 113 % of control | [1] 112 % of control | dose: 600.0 mg/kg/injection, schedule: Q01DX001 (ip), vehicle: carboxymethylcellulose (CMC) 112 % of control

O=C1OC(=O)c2c1ccc1ccc(Cl)cc21
inactive: [5] 94 % of control | [6] 94 % of control | [7] 102 % of control

Clc1ccc(C2=NC(c3ccccc3)N3C2C3c2ccccc2)cc1 (stereo not drawn)
inactive: [2] 95 % of control | [3] 89 % of control | [4] 89 % of control

CCC1(O)C(=O)OCc2c1ccnc2Cl (stereo not drawn)
inactive: dose: 50.0 mg/kg/injection, schedule: Q04DX003 (ip), vehicle: saline 105 % of control | dose: 100.0 mg/kg/injection, schedule: Q04DX003 (ip), vehicle: saline 116 % of control | dose: 200.0 mg/kg/injection, schedule: Q04DX003 (ip), vehicle: saline 103 % of control

CC1CCC2N(C1)CC1C3(O)CC45OC6(O)C(O)CCC4(C)C6CCC5C3(O)CC(O)C1(O)C2(C)O (stereo not drawn)
inactive: [8] 104 % of control | [9] 105 % of control

O=C(NC(CS)C(=O)O)OCc1ccccc1 (stereo not drawn)
inactive: [10] 97 % of control | dose: 50.0 mg/kg/injection, schedule: Q01DX009 (ip), vehicle: Klucel (hydroxypropylcellulose) (HPC) 101 % of control | [11] 98 % of control | [12] 101 % of control | [13] 106 % of control and 113 % of control | [14] 98 % of control

O=C(Nc1ccccc1)N1CCN=C1C1CCCc2ccccc21 (stereo not drawn)
inactive: dose: 100.0 mg/kg/injection, schedule: Q04DX002 (ip), vehicle: saline with Tween-80 89 % of control | dose: 200.0 mg/kg/injection, schedule: Q04DX002 (ip), vehicle: saline with Tween-80 89 % of control | dose: 400.0 mg/kg/injection, schedule: Q04DX002 (ip), vehicle: saline with Tween-80 86 % of control

C[N+]1(C)C2CCCC1CC(=O)NC2 (stereo not drawn)
inactive: [8] 107 % of control | [9] 104 % of control | dose: 300.0 mg/kg/injection, schedule: Q01DX001 (ip), vehicle: saline 112 % of control

Oc1ccc2ccccc2c1-c1nc2ccccc2s1
inactive: dose: 25.0 mg/kg/injection, schedule: Q04DX003 (ip), vehicle: other 94 % of control and 111 % of control | dose: 50.0 mg/kg/injection, schedule: Q04DX003 (ip), vehicle: other 97 % of control and 88 % of control | dose: 100.0 mg/kg/injection, schedule: Q04DX003 (ip), vehicle: other 91 % of control

CCCCCCCCOP(=O)(N1CC1C)N1CC1C (stereo not drawn)
inactive: dose: 33.0 mg/kg/injection, schedule: Q01DX003 (ip), vehicle: acetone 102 % of control | dose: 33.0 mg/kg/injection, schedule: Q01DX009 (ip), vehicle: saline with Tween-80 114 % of control | dose: 33.0 mg/kg/injection, schedule: Q01DX009 (ip), vehicle: saline 116 % of control | dose: 50.0 mg/kg/injection, schedule: Q01DX003 (ip), vehicle: acetone 96 % of control | dose: 50.0 mg/kg/injection, schedule: Q01DX009 (ip), vehicle: saline with Tween-80 122 % of control | dose: 75.0 mg/kg/injection, schedule: Q01DX003 (ip), vehicle: acetone 113 % of control | dose: 100.0 mg/kg/injection, schedule: Q01DX001 (ip), vehicle: acetone 103 % of control | dose: 200.0 mg/kg/injection, schedule: Q01DX001 (ip), vehicle: acetone 114 % of control

Clc1ccc2c(c1)/C(=C\c1ccnc3ccccc13)c1cc(Cl)cc(Cl)c1-2
inactive: [15] 94 % of control | [12] 93 % of control | [13] 93 % of control | [16] 92 % of control | [14] 98 % of control | [17] 88 % of control | [18] 94 % of control | [19] 88 % of control

COc1[nH]c(=O)[nH]c(=O)c1OP(=O)(OC)OC
inactive: dose: 50.0 mg/kg/injection, schedule: Q01DX001 (ip), vehicle: saline 98 % of control | dose: 100.0 mg/kg/injection, schedule: Q01DX001 (ip), vehicle: saline 98 % of control | dose: 200.0 mg/kg/injection, schedule: Q01DX001 (ip), vehicle: saline 98 % of control | dose: 400.0 mg/kg/injection, schedule: Q01DX001 (ip), vehicle: saline 89 % of control

OCCCNc1nc2c(Cl)cc(Cl)cc2c2ccccc12
inactive: [12] 104 % of control | [13] 107 % of control | [14] 94 % of control | [17] 108 % of control | [19] 95 % of control

CN=C(N/N=C/c1ccccc1)N(C)C
inactive: [10] 107 % of control | [11] 100 % of control | dose: 87.5 mg/kg/injection, schedule: Q04DX003 (ip), vehicle: Klucel (hydroxypropylcellulose) (HPC) 98 % of control

N=C(N)SC12CC3CC(CC(C3)C1)C2
inactive: dose: 10.0 mg/kg/injection, schedule: Q04DX002 (ip), vehicle: Klucel (hydroxypropylcellulose) (HPC) 94 % of control | dose: 20.0 mg/kg/injection, schedule: Q04DX002 (ip), vehicle: Klucel (hydroxypropylcellulose) (HPC) 87 % of control | dose: 40.0 mg/kg/injection, schedule: Q04DX002 (ip), vehicle: Klucel (hydroxypropylcellulose) (HPC) 94 % of control

CCOC1C(Br)=Cc2ccccc2N1C(=O)OC (stereo not drawn)
inactive: [15] 101 % of control | [16] 97 % of control | [18] 101 % of control

CCCCCCCCCCCCC(=O)N1CCCC1
inactive: dose: 100.0 mg/kg/injection, schedule: Q04DX002 (ip), vehicle: saline 104 % of control | dose: 200.0 mg/kg/injection, schedule: Q04DX002 (ip), vehicle: saline 104 % of control | dose: 400.0 mg/kg/injection, schedule: Q04DX002 (ip), vehicle: saline 96 % of control

Cc1ccc(S(=O)(=O)OCC(OS(=O)(=O)c2ccc(C)cc2)C2OCOC(COS(=O)(=O)c3ccc(C)cc3)C2OS(=O)(=O)c2ccc(C)cc2)cc1 (stereo not drawn)
inactive: [5] 94 % of control | [6] 87 % of control | [7] 100 % of control

Cc1cccc(C)c1N(COCC(C)C)C(=O)CCl
inactive: dose: 100.0 mg/kg/injection, schedule: Q01DX009 (ip), vehicle: saline with Tween-80 100 % of control | dose: 200.0 mg/kg/injection, schedule: Q01DX009 (ip), vehicle: saline with Tween-80 100 % of control
